Experimental findings from patent publication US20210393677A1, “COMPOUNDS FOR MODULATION AND AS FUNCTIONAL REPLACEMENT OF ALPHAKETOGLUTARIC ACID (2OG)-DEPENDENT OXYGENASES” (priority 2018, published 2021) are described below.

Experiment [1] has as its system TET enzyme. The experiment in a line: cell-free TET assay (co-substrate function). Format: biochemical. Particulars: FIG. 16B.
For experiment [2], the system named is HCT116 IDH1+/+ cells. The experiment is described as follows: 2-HG content by LC-MS/MS in HCT116 IDH1+/+ cells. Format: cell-based, human. Particulars: ML309 10 μM, untreated 0.15. On the procedure: Es is known that IDH1 mutations are connected with a modified IDH1 enzyme function that induces the excess production of neomorphous metabolite 2-hydroxyglutarate. In order to validate the increased frequency of 2-HG in HCT116 IDH1R132H/+ cells compared to HCT116 IDH1+/+ cells, the 2-HG content was analyzed by means of LC-MS/MS analysis (illustration 1). Intracellular 2-HG in IDH1R132H/+ cells was 56 times higher than in IDH1 wildtype cells (8.5 nmol/mg protein or 0.15 nmol/mg protein; 56 times higher; p<0.0001). Furthermore, the treatment with the IDH1 inhibitor ML309 (10 μM) led to a significant reduction of the oncometabolite 2-HG in the HCT116 IDH1R132H/+ cells to (0.3 nmol/mg protein) and to a lower degree of IDH1+/+ (0.04 nmol/mg protein) (Fig.). In contrast, DKA produced only minimum changes in the 2-HG concentrations in the mutated cells (5.9 nmol/mg protein). […] FIG. 10.
HCT116 (ATCC-Nr. CCL-247), a human colorectal carcinoma cell line, was acquired from the American Type Culture Collection (ATCC; https://www.atcc.org/). Human colon carcinoma cells HCT116 IDH1+/+ and HCT116 IDH1R132H/+ come from Horizon Discovery and were let us for test purposes. The cells were cultured in Dulbecco's Modified Eagle's Medium (DMEM) with 2 mM L-glutamine, supplemented with 10% fetal bovine serum (FBS), 45 IU/ml penicillin and 45 IU/ml streptomycin. […]

Experiment [3] concerns TET enzymes in IDH1R132H/+ cells. The experiment is described as follows: activation of TET enzymes in IDH1R132H/+ cells (5-hmdC levels). It is filed as cell-based, human. Particulars: IDH1R132H/+ cells (FIG. 11). On the procedure:
Likewise, promotion of the secondary apoptosis occurs, which indicates the recovery of the cell function on a molecular level (cf. FIG. 11). The native 2-OG again enters into the normal cell metabolism and thus again inhibits the malignant derailment of the cell (secondary way of formation of 2-OG from glutamic acid is omitted).
Samples of genomic DNA (20 μg) were hydrolyzed with micrococcal nuclease from Staphylococcus aureus, bovine spleen phosphodiesterase, and bovine intestinal alkaline phosphatase (all from Sigma-Aldrich, Taufkirchen, Germany) to 2′-deoxynucleosides, as described, with modifications of the application. […] Then, DNA hydrolysates were centrifuged (5 min, 16,000×g), and 10 μL of the supernatants were used for the quantification of dC and 5-mdC stable marked references.
Compounds [15N2,13Cl]dC and 5-mdC-d3 (both from Toronto Research Chemicals, Toronto, Canada). […] Chromatographic conditions and settings of the ESI source were as described for the quantification of dC and 5-mdC [62]. […] The quantification of 5-hmdC with respect to the stable isotope-marked standard that were both eluted at 4.9 min from the LC column (the retention times of dC and 5-mdC were 4.7 or 6.0 min, respectively), was performed with the aid of the Multiple Reaction Monitoring (MRM) approach. […] For clear identification, further mass transitions were recorded. […]

Structures are written as SMILES.

Consider `O=C(O)C(=O)C(O)C(O)C(O)CO` (stereo not drawn) [2-ketogulonic acid], for which, in experiment [1], the “effect in the assay” value is on record as “dose-dependent effect”.

As to `Cc1ccccc1C(C(=O)NC1CCCC1)N(C(=O)Cn1cnc2ccccc21)c1cccc(F)c1` (stereo not drawn) [ML309, reference compound], the “intracellular 2-HG” value in experiment [2] came to 0.04 nmol/mg protein. The “activation of the inhibited TET enzymes” value in experiment [3] was “does not activate”.
